The values below come from BindingDB's records for patent US11185100 (MARS, INCORPORATED, 2021).

Test [1] deals with T1, G-protein coupled receptors family 3 profile domain-containing protein (Felis catus, UniProt A0ABI7Z2I4). The test can be described thus: Activation of T1R1/T1R3 Receptor by Nucleotide Derivatives. An excerpt:
HEK293 cells that stably express T1R3 and inducibly express T1R1 were exposed to nucleotide derivatives alone to activate the umami receptor. Activation of the T1R1/T1R3 receptor was detected by a change in intracellular calcium levels using a calcium sensitive fluorescent dye. Cells that express T1R3 but not T1R1 were used as a control. A FLIPR Tetra or a FlexStation 3 was used for data capture.

Test [2] deals with T1, G-protein coupled receptors family 3 profile domain-containing protein. The test can be described thus: Activation of T1R1/T1R3 Receptor by Nucleotide Derivatives (alanine). The protocol:
The concentration of alanine is 20 mM.
Target sequence in this assay (A0ABI7Z2I4 1-770): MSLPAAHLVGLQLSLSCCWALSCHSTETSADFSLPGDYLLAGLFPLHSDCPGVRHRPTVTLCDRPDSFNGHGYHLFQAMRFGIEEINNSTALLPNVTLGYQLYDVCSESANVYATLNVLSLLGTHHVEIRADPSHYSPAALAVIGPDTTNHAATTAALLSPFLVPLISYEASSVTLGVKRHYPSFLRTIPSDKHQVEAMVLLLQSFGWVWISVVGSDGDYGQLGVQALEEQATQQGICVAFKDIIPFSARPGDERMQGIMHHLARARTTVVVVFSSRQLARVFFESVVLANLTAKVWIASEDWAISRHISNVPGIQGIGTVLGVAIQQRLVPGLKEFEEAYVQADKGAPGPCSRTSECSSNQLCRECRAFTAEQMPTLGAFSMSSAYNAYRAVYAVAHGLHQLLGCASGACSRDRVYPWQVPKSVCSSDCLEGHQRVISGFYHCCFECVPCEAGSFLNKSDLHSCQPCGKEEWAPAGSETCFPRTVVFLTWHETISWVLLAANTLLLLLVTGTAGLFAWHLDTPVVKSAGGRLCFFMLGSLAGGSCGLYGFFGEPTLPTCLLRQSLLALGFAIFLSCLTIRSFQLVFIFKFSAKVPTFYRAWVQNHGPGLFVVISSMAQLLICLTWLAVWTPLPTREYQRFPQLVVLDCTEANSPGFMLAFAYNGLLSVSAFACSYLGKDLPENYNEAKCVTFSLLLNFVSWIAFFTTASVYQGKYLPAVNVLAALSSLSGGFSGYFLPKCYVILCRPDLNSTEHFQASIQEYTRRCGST

Broadly, the EC50 is the concentration at which the effect is half-maximal. The low end stands for higher potency in that assay, the high end for lower potency in that assay.

Regarding `Nc1ncnc2c1ncn2[C@@H]1O[C@H](COP(=O)(O)O)[C@@H](OP(=O)(O)O)[C@H]1O` [US11185100, TABLE 7.1], the EC50 in test [1] is greater than 30 µM.
`CC1(O)[C@](C)(n2cnc3c(N)ncnc32)O[C@](C)(COP(O)(O)=S)[C@]1(C)O` (stereo partly drawn) [US11185100, TABLE 6.6] returned an EC50 in test [2] of 60 µM.
Take `CC1(O)[C@@](C)(COP(O)(O)=S)O[C@@](C)(n2cnc3c(N)ncnc32)[C@@]1(C)O` (stereo partly drawn) [US11185100, TABLE 7.9]: the midpoint of the response in test [2], the EC50, lay at 60 µM.
